The target of this assay is T1, porcine serotonin transporter (pSERT) (Sus scrofa, UniProt F1RN70).
T1 construct: gene SLC6A4; native full-length pSERT from porcine brain; model residues 116-654; with 15B8 Fab
Put plainly: cryo-EM structure ([…] Å); [3H]paroxetine competition SPA with purified native pSERT. In kind it is binding.

T1 sequence (F1RN70 38-667): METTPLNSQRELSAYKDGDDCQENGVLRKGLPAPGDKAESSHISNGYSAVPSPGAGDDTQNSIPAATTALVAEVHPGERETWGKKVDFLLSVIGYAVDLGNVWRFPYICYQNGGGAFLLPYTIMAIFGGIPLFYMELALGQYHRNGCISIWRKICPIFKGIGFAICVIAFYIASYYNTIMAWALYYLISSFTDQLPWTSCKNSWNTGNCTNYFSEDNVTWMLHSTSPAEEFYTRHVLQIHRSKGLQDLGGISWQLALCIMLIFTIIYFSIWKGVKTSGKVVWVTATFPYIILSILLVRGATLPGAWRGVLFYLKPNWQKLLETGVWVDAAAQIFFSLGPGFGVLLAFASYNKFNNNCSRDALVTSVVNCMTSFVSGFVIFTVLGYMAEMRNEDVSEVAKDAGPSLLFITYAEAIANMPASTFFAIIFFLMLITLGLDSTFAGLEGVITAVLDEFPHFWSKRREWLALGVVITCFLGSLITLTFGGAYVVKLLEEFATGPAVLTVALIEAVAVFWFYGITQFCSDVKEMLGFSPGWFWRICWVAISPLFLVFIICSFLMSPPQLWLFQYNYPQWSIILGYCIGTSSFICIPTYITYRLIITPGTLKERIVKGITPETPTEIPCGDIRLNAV

One may read the Ki as a dissociation constant, usually derived from enzyme kinetics or from competition with a known ligand. Read a high Ki as lower affinity. `CN[C@@H](C)Cc1ccccc1` [(+)-methamphetamine] yielded an inhibitory constant (Ki) of 199 ± 103 µM.
